In brackets after ≈: the same amount, converted by molar mass. Bounds are passed on as bounds.

For the series the following is noted: buffer; pH 7.4; 200.0 µM.
Usually kinetic solubility stands for solubility judged after dilution from a stock solution rather than from solid. As for `COC(=O)c1ccccc1Oc1ccc(NC(=O)c2ccco2)cc1`, the solubility (kinetic) came out at 49.6 µg/mL (≈ 147 µM).

`O=c1c2ccccc2nc2n1CCO2`: the solubility (kinetic) was over 28.2 µg/mL.

Regarding `CC(=O)c1csc(Nc2ccccc2Cl)n1`, the solubility (kinetic) worked out at 32.8 µg/mL (≈ 130 µM).

With `CN(C)C(=S)Nc1ccc(N2CCOCC2)cc1`, the kinetic solubility is over 39.8 µg/mL.

The compound `O=C(OCc1cnc(Cl)s1)c1c(F)cccc1F` yielded a kinetic solubility of 21.5 µg/mL (≈ 74.2 µM).

Compound `CC(=O)c1ccc(NC(=O)C(C)Sc2ccccn2)cc1` (stereo unspecified) showed a kinetic solubility of over 45.1 µg/mL.

The compound `CCN(CC)S(=O)(=O)c1cccc(C(=O)Nc2cc(C)on2)c1` came in with a solubility (kinetic) of 13.4 µg/mL (≈ 39.7 µM).

The compound `O=S(=O)(Cc1cc(-c2ccccc2)no1)c1ccccc1` registered a solubility (kinetic) of 3.4 µg/mL (≈ 11.4 µM).

In turn, `CC(C)(C)c1ccc(OCC(O)CN2CCc3ccccc3C2)cc1.Cl` (stereo unspecified) returned a kinetic solubility of 11.7 µg/mL.

Compound `Cc1cccc(NC(=O)c2cccnc2Cl)n1` registered a solubility (kinetic) of over 37.2 µg/mL.

On to `COc1cc(C2/C(=C(\O)c3ccc4c(c3)OCCO4)C(=O)C(=O)N2Cc2ccco2)ccc1O` (stereo unspecified), for which the solubility (kinetic) amounted to 66.7 µg/mL (≈ 144 µM).

`Cc1c(NC(=O)C(c2ccccc2)c2ccccc2)cccc1C(=O)O` displayed a solubility (kinetic) of over 51.8 µg/mL.

For `CCOc1ccc(S(=O)(=O)N2CC(=O)Nc3ccccc32)cc1`, the solubility (kinetic) was 10.7 µg/mL (≈ 32.2 µM).

Consider `CC(C(=O)NC1CCCCC1)N1C(=O)c2cccc3cccc1c23` (stereo unspecified), for which the kinetic solubility stood at 3.5 µg/mL (≈ 10.9 µM).

In turn, `CCOC(=O)C1=C(C)NC(C)=C(C(=O)OCC)C1C(=O)OCC(=O)NCCc1ccccc1` gave a solubility (kinetic) of over 68.8 µg/mL.

In turn, `O=C1c2ccccc2-c2ccc(C(=O)N3CCCCC3)cc21` gave a kinetic solubility of 19 µg/mL (≈ 65.2 µM).

Take `Cn1c(CC(=O)Nc2ccccc2)cc2ccccc21`: the kinetic solubility was 1.7 µg/mL (≈ 6.43 µM).

`COc1ccc(OC(=O)NCCc2ccccc2)cc1` had a solubility (kinetic) of 24.3 µg/mL (≈ 89.6 µM).

In turn, `C=CCN1C(=O)C(CC(=O)O)SC1=Nc1ccc(C(=O)O)cc1` (stereo unspecified) gave a kinetic solubility of 49.2 µg/mL (≈ 147 µM).

`Cc1ccc(S(=O)(=O)Nc2ccccc2C(=O)N2CCCCC2)cc1` yielded a solubility (kinetic) of over 53.8 µg/mL.

With `CC(CCc1ccccc1)NC(=O)COC(=O)c1cccnc1Cl` (stereo unspecified), the kinetic solubility was over 52 µg/mL.

As to `Cn1cccc1CNC(=S)Nc1cc(F)cc(F)c1`, the solubility (kinetic) is over 42.2 µg/mL.

`COc1cc(N(C)C)c([N+](=O)[O-])cc1C(=O)N1CCOCC1` returned a kinetic solubility of over 46.4 µg/mL.

Consider `Cc1cccc(C(=O)OC2CCCN(C)C2)c1C.Cl` (stereo unspecified), for which the kinetic solubility came out at 36.9 µg/mL.

Regarding `CCC(=O)OC1(c2ccccc2)C(C)CN(C)CC1C.Cl` (stereo unspecified), the solubility (kinetic) was over 46.8 µg/mL.

The compound `COc1ccc(N(C(=O)C(C)C)S(=O)(=O)c2ccc3ccccc3c2)cc1` displayed a solubility (kinetic) of under 0.8 µg/mL.

Compound `Cc1cc(C)c(C#N)c(N2CCN(c3ccccc3F)CC2)n1` had a kinetic solubility of 3.8 µg/mL (≈ 12.2 µM).

Turning to `Cc1c(C(=O)N(C)Cc2cccc(F)c2)oc2c(Cl)cccc12`, the kinetic solubility stood at 3.6 µg/mL (≈ 10.9 µM).

The compound `Cc1sc2nc(SCC(=O)O)[nH]c(=O)c2c1C` had a solubility (kinetic) of over 40.5 µg/mL.

Compound `CC(CCc1ccccc1)NC(=O)c1ccccc1F` (stereo unspecified) had a solubility (kinetic) of 34.4 µg/mL (≈ 127 µM).

For the compound `COc1ccc2[nH]c(=O)c(CNc3ccccc3C)cc2c1`, the kinetic solubility came to 27.6 µg/mL (≈ 93.8 µM).

In the case of `Cc1ccc(S(C)(=O)=NC(=O)NC(=O)c2c(Cl)cccc2Cl)cc1` (stereo unspecified), the solubility (kinetic) is 41.3 µg/mL (≈ 107 µM).

In turn, `COc1ccc(Nc2ncnc3sccc23)cc1OC` returned a kinetic solubility of 36.9 µg/mL (≈ 128 µM).

Take `CCc1ccc(NC2=CC(=O)C(=O)c3ccccc32)cc1`: the solubility (kinetic) is 2.4 µg/mL (≈ 8.65 µM).

In turn, `COc1ccccc1C1CC(=O)NC(C)=C1C(=O)OC(C)C` (stereo unspecified) returned a kinetic solubility of 28.4 µg/mL (≈ 93.6 µM).

On to `Cn1c(SCC(=O)Nc2ccc3c(c2)OCCO3)nnc1-c1ccncc1`, for which the solubility (kinetic) was over 57.5 µg/mL.

Take `Cc1cc(N/C=C/C(=O)c2ccccc2)ccc1Br`: the kinetic solubility is under 0.7 µg/mL.

With `COc1ccc(Cn2c(=O)cc(N)n(-c3ccccc3C)c2=O)cc1`, the kinetic solubility is over 50.6 µg/mL.

With `O=C(c1ccc(Cl)cc1)N(c1ccccn1)C1CCCCC1`, the solubility (kinetic) was found to be 41.5 µg/mL (≈ 132 µM).

Take `COc1cccc(N/C=C/C(=O)c2ccc(C)cc2)c1`: the solubility (kinetic) is 2.4 µg/mL (≈ 8.98 µM).

`CC(NC(=O)c1cccc(Cl)c1)C1CC2CCC1C2` (stereo unspecified) gave a kinetic solubility of under 0.6 µg/mL.

The compound `Cc1ccc(Nc2nc(C(=O)NCC3CCCO3)cs2)cc1` (stereo unspecified) had a solubility (kinetic) of 9 µg/mL (≈ 28.4 µM).

Regarding `OCc1ccnc2oc3ccccc3c12`, the kinetic solubility stood at 28.8 µg/mL (≈ 145 µM).

In the case of `Cc1cccc(NC(=O)CCN2CCCC(C)C2)c1.Cl` (stereo unspecified), the solubility (kinetic) was over 44.5 µg/mL.

For the compound `COC(=O)c1cccc(NC(=O)c2ccccc2)c1`, the solubility (kinetic) came to 35.7 µg/mL (≈ 140 µM).

In turn, `Cn1c(O)c(/C=C2\C=Nc3ccc(Br)cc32)c(=O)n(C)c1=O` returned a kinetic solubility of 0.9 µg/mL (≈ 2.48 µM).

`O=S(=O)(NCCC1=CCCCC1)c1ccccc1Cl` displayed a kinetic solubility of 22 µg/mL (≈ 73.4 µM).

Compound `CC(C)Cn1c(SCC(=O)N2CCc3ccccc3C2)nc(O)cc1=O` returned a solubility (kinetic) of over 56 µg/mL.

Compound `O=C(Nc1cc(S(=O)(=O)N2CCOCC2)ccc1N1CCOCC1)c1ccc([N+](=O)[O-])s1` registered a kinetic solubility of 6.1 µg/mL (≈ 12.6 µM).

`COc1ccc(NS(=O)(=O)c2ccc3[nH]c(=O)[nH]c3c2)cc1OC` came in with a solubility (kinetic) of over 52.4 µg/mL.

As to `O=C(NCC1CCCO1)c1cccc(S(=O)(=O)Nc2cccc(C(F)(F)F)c2)c1` (stereo unspecified), the solubility (kinetic) was 2.1 µg/mL (≈ 4.9 µM).

Values taken from PubChem BioAssay AID1996.
